# In PMC8469395 (Pharmaceutics, 2021):
# Like-named read-outs stand apart in the source and are kept apart here.
# Key:
# TR-iBRB2 cells [1] = test: Effect of compounds on [3H]amantadine uptake by TR-iBRB2 cells; format: in vitro ADME, rat; details: for activity at 200 µM / activity at 2500 µM: Rattus norvegicus, 0.05 h, read-out: [3H]amantadine uptake, % of Control, TR-iBRB2
# Procedure: (§1) In 10% fetal bovine serum (FBS; Merck, Darmstadt, Germany)-containing Dulbecco’s modified Eagle’s medium (DMEM; Nissui Pharmaceutical, Tokyo, Japan) with 20 mM NaHCO3, 0.19 mM benzylpenicillin potassium, and 0.14 mM streptomycin sulfate, TR-iBRB2 cells (passage number 32–60) were cultured according to previous reports. As described previously, RPE-J cells (passage number 79-92) were cultured in DMEM with 4% FBS, 20 mM NaHCO3, and 0.1 mM non-essential amino acid (FUJIFILM Wako Pure Chemical, Osaka, Japan) containing 0.16 mM benzylpenicillin potassium and 0.17 mM streptomycin sulfate. In accordance with established protocols for the uptake study, the cells were seeded at a density of 1.0 × 10^5 cells/well onto a collagen I-coated 24-well plate (BioCoat™ Collagen I Cellware, Corning, Corning, NY, USA) and cultured for 2 days, at 33 °C, under 5% CO2/air. Referring to the previous reports, we started the uptake reaction, and the details of the procedure are included in the Supplemental Materials.
# (§2) Cell/medium ratio = [^3H]compound (dpm) per cell protein (mg)/[^3H]compound (dpm) per medium (µL)(2) […]
# (§3) 7.4) three times at 37°C.
# (§4) and KHCO3, respectively. Cl--free ECF buffer was prepared by replacing equimolar
# (§5) protein assay kit (Bio-Rad, Hercules, CA, USA).
# [2] = cited from earlier work
# RPE-J cells [3] = test: Effect of compounds on [3H]amantadine uptake by RPE-J cells; format: in vitro ADME, rat; details: for activity at 200 µM / activity at 1000 µM / activity at 2500 µM: Rattus norvegicus, 0.05 h, read-out: [3H]amantadine uptake, % of Control, RPE-J; for [3H]amantadine uptake, % of Control, RPE-J: [3H]amantadine 1.67 µM, 3 min, 37 °C
# Procedure: as §1, §2, §3, §4, §5
# TR-iBRB2 cells [4] = test: Amantadine uptake by TR-iBRB2 cells (inner BRB model); format: in vitro ADME, rat
# Procedure: as §1
# (§6) Cell/medium ratio = [^3H]compound (dpm) per cell protein (mg)/[^3H]compound (dpm) per medium (µL)(2)
# (§7) Kinetic parameters for cell uptake, such as the maximal uptake rate (Vmax), Michaelis–Menten constant (Km), and non-saturable uptake clearance (Kd), were obtained by using the nonlinear least-squares regression analysis program (MULTI) with Equations (3)–(5), where the uptake rate of the test compound and its concentration were V and S, respectively. V = (Vmax × S)/(Km + S)(3) V = (Vmax × S)/(Km + S) + Kd × S(4) V = (Vmax1 × S)/(Km1 + S) + (Vmax2 × S)/(Km2 + S)(5) […]
# as §3, §4, §5
# [5] = design: method as in ref 31 = [31]; 31. Grabowski T. Gumulka S.W. Borucka B. Raszewski W. Analysis relationships between pharmacokinetic parameters in silico/in vivo of selected antiviral drugs based on structural analysis Adv. Clin. Ex; details: cited from earlier work
# [6] = tested on: retina (blood–retinal barrier); test: In vivo blood-to-retina transport, retinal uptake index (RUI) method; details: co-administration of 50 mM compound, rat
# RPE-J cells [7] = test: Amantadine uptake by RPE-J cells (outer BRB model); format: in vitro ADME, rat; details: for Km1 (high-affinity process): 1.67 µM−10 mM
# Procedure: as §1, §6, §7, §3, §4, §5
# NMDA receptors = target: NMDA receptors; design: method as in ref 47 (Parsons et al.); details: ref 47 (Parsons et al.); cited from earlier work
# [8] = pharmacotherapy for Parkinson's disease; cited from earlier work
# TR-iBRB2 cells [9] = details: read-out: Km for uptake by TR-iBRB2 cells; cited from earlier work
# [10] = compound 0.2 mM, [3H]amantadine 1.67 µM, 3 min, 37 °C
# [11] = pretreatment 30 mM NH4Cl, 15 s, 37 °C
smiles,measurement,setting,value
CC(=O)Nc1nnc(S(N)(=O)=O)s1 [Acetazolamide],"[3H]amantadine uptake, % of Control, TR-iBRB2",TR-iBRB2 cells [1]; [10],90.9 ± 3.8 % of Control
NC12CC3CC(CC(C3)C1)C2 [Amantadine],pKa,[2],10.1
same,activity at 200 µM,RPE-J cells [3],89.9 ± 5.6%
same,activity at 1000 µM,RPE-J cells [3],21.3 ± 3.1%
same,reduction of uptake at extracellular pH 6.4,TR-iBRB2 cells [4],64%
same,reduction of uptake at 4 °C,TR-iBRB2 cells [4]; 4 °C vs 37 °C,86%
same,Km,"TR-iBRB2 cells [4]; 37 °C, 3 min, 1.67 to 1000 µM",79.4 µM
same,Vmax,"TR-iBRB2 cells [4]; 37 °C, 3 min, 1.67 to 1000 µM",1.36 ± 0.38 nmol/(min·mg protein)
same,reduction of uptake in Cl−-free buffer,"TR-iBRB2 cells [4]; 3 min, 37 °C",38%
same,initial uptake rate,"TR-iBRB2 cells [4]; [3H]amantadine 1.67 µM, 37 °C",14.0 ± 4.1 µL/(min·mg protein)
same,decrease of uptake at alkalized intracellular pH,"TR-iBRB2 cells [4]; acute 30 mM NH4Cl, 15 s, 37 °C",80%
same,increase of uptake at acidified intracellular pH,TR-iBRB2 cells [4]; [11],90%
same,log D,[5],0.176
same,decrease of [3H]amantadine RUI,[6],44%
same,Km2 (low-affinity process),RPE-J cells [7],9830 ± 1620 µM
same,Vmax1 (high-affinity process),RPE-J cells [7],0.914 ± 0.510 nmol/(min·mg protein)
same,Vmax2 (low-affinity process),RPE-J cells [7],85.3 ± 11.4 nmol/(min·mg protein)
same,contribution of the high-affinity process,RPE-J cells [7],54%
same,contribution of the low-affinity process,RPE-J cells [7],46%
same,decrease of uptake at extracellular pH 6.4,RPE-J cells [7],32%
same,increase of uptake at extracellular pH 8.4,RPE-J cells [7],25%
same,Km1 (high-affinity process),RPE-J cells [7],90.5 ± 49.6 µM
same,Km1 (high-affinity process),RPE-J cells [7]; listed as amantadine,90.5 µM
same,reduction of uptake at 4 °C,RPE-J cells [7]; 4 °C vs 37 °C,87%
same,initial uptake rate,"RPE-J cells [7]; [3H]amantadine 1.67 µM, 37 °C",15.9 ± 0.3 µL/(min·mg protein)
same,decrease of uptake at alkalized intracellular pH,"RPE-J cells [7]; acute 30 mM NH4Cl, 15 s, 37 °C",78%
same,Km2 (low-affinity process),RPE-J cells [7]; listed as amantadine,9830 µM
same,increase of uptake at acidified intracellular pH,RPE-J cells [7]; [11],18%
same,activity at 200 µM,TR-iBRB2 cells [1],34.1 ± 4.1%
same,IC50,NMDA receptors,20 µM
same,plasma concentration range,[8],0.6 to 29 µM
C[N+](C)(C)CCO [Choline],activity at 200 µM,RPE-J cells [3],124 ± 39%
same,activity at 200 µM,TR-iBRB2 cells [1],101 ± 8%
CN/C(=N/CCSCc1nc[nH]c1C)NC#N [Cimetidine],"[3H]amantadine uptake, % of Control, RPE-J",RPE-J cells [3]; compound 0.2 mM,106 ± 5 % of Control
same,"[3H]amantadine uptake, % of Control, TR-iBRB2",TR-iBRB2 cells [1],97.6 ± 24.7 % of Control
Clc1cccc(Cl)c1N=C1NCCN1 [Clonidine],activity at 200 µM,RPE-J cells [3],71.6 ± 4.7%
same,activity at 1000 µM,RPE-J cells [3],30.8 ± 4%
same,Km,TR-iBRB2 cells [9],286 µM
same,activity at 200 µM,TR-iBRB2 cells [1],42.1 ± 12.1%
same,reduction of [3H]amantadine uptake by TR-iBRB2 cells,TR-iBRB2 cells [1]; compound 0.2 mM,more than 58%
CCN1/C(=C/c2ccc3ccccc3[n+]2CC)C=Cc2ccccc21.[I-] [Decynium-22],"[3H]amantadine uptake, % of Control, RPE-J",RPE-J cells [3]; compound 0.2 mM,86.7 ± 41.9 % of Control
same,"[3H]amantadine uptake, % of Control, RPE-J",RPE-J cells [3]; compound 0.5 mM,136 ± 8 % of Control
same,"[3H]amantadine uptake, % of Control, TR-iBRB2",TR-iBRB2 cells [1]; [10],106 ± 31 % of Control
CNCCCN1c2ccccc2CCc2ccccc21 [Desipramine],"[3H]amantadine uptake, % of Control, RPE-J",RPE-J cells [3]; compound 0.2 mM,10.7 ± 5.6 % of Control
same,"[3H]amantadine uptake, % of Control, TR-iBRB2",TR-iBRB2 cells [1]; [10],7.05 ± 0.57 % of Control
"N#CC(C#N)=NNc1ccc(OC(F)(F)F)cc1 [FCCP, carbonyl cyanide-p-trifluoromethoxyphenylhydrazone]",decrease of [3H]amantadine uptake,TR-iBRB2 cells [1],50%
O=C(O)[C@H](O)[C@@H](O)[C@H](O)[C@H](O)CO [Gluconate],"[3H]amantadine uptake, % of Control, RPE-J",RPE-J cells [3]; compound 0.2 mM,86.2 ± 23.4 % of Control
same,"[3H]amantadine uptake, % of Control, TR-iBRB2",TR-iBRB2 cells [1]; [10],91.7 ± 21.7 % of Control
NCC(=O)O [Glycine],"[3H]amantadine uptake, % of Control, RPE-J",RPE-J cells [3]; compound 2.5 mM,116 ± 13 % of Control
same,"[3H]amantadine uptake, % of Control, TR-iBRB2","TR-iBRB2 cells [1]; compound 2.5 mM, [3H]amantadine 1.67 µM, 3 min, 37 °C",102 ± 4 % of Control
CN(C)CCCN1c2ccccc2CCc2ccccc21 [Imipramine],activity at 200 µM,RPE-J cells [3],16.9 ± 5.2%
same,activity at 200 µM,TR-iBRB2 cells [1],8.37 ± 1.43%
N=C(N)NCCC[C@H](N)C(=O)O [L-Arginine],activity at 2500 µM,RPE-J cells [3],150 ± 38%
same,activity at 2500 µM,TR-iBRB2 cells [1],127 ± 15%
N[C@@H](CC(=O)O)C(=O)O [L-Aspartic acid],activity at 2500 µM,RPE-J cells [3],79.5 ± 12.7%
same,activity at 2500 µM,TR-iBRB2 cells [1],101 ± 23%
